Source: patent US6355799B1, “Substituted benzene compounds, process for their preparation, and herbicidal and defoliant compositions containing them” (ISK Americas Incorporated, priority 1997, dated 2002)

Legend:
Format in all cases: in vivo
[1] = tested on: redroot pigweed (Amaranthus retroflexus, AMARE); experiment: Pre-emerge test, greenhouse herbicide activity screening; details: for phytotoxicity rating AMARE: pre-emerge, 14 days after application, scale 0-100; for Pre-emerge Herbicidal Activity, phytotoxicity rating (0-100), AMARE: rated 14 days after application, 0 = no damage, 100 = complete death
Summary of the method: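 Compounds in acetone were track-sprayed at 187 l/ha, 15–1000 g ai/ha, onto sandy loam pots. Pre-emerge seeds were sown one day before spraying, with surface watering afterwards. Post-emerge plants were at the 2–3 leaf stage and sprayed with 0.25% v/v non-ionic surfactant. Injury was rated 0–100 at 14 days.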

[2] = tested on: upland rice (Oryza sp., var. Tebonnet, RICE); experiment: Post-emerge test, crop safety; details: post-emerge, 14 days after application, rating scale 0-100
Summary of the method: (§1)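 Plants grown in 10 cm pots of sandy loam mix received acetone-dissolved compounds through a moving flat-fan nozzle. Doses ranged from 15 to 1000 g ai/ha. Pre-emerge pots were seeded one day earlier, post-emerge pots 8–21 days earlier. Fourteen days on, each pot was graded 0–100 for damage.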

[3] = tested on: field corn (Zea mays L., var. Dekalb 535, CORN); experiment: Post-emerge test, crop safety; details: post-emerge, 14 days after application, rating scale 0-100
Summary of the method: as §1

[4] = tested on: upland rice (Oryza sp., var. Tebonnet, RICE); experiment: Pre-emerge test, crop safety; details: for phytotoxicity rating RICE (crop damage): pre-emerge, 14 days after application, scale 0-100; for Pre-emerge phytotoxicity rating (0-100), crop damage, RICE: rated 14 days after application, 0 = no damage, 100 = complete death
Summary of the method: (§2)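 Rating: 0–100 visual injury, 14 DAA. Application: acetone, 187 l/ha, 15–1000 g ai/ha, flat-fan track sprayer with nozzle 40–45 cm above soil or canopy. Post-emerge runs used 0.25% v/v surfactant on 2–3 leaf plants.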

[5] = tested on: field corn (Zea mays L., var. Dekalb 535, CORN); experiment: Pre-emerge test, crop safety; details: for phytotoxicity rating CORN (crop damage): pre-emerge, 14 days after application, scale 0-100; for Pre-emerge phytotoxicity rating (0-100), crop damage, CORN: rated 14 days after application, 0 = no damage, 100 = complete death
Summary of the method: as §2

[6] = tested on: ivyleaf morningglory (Ipomoea hederacea, IPOHE); experiment: Pre-emerge test, greenhouse herbicide activity screening; details: for phytotoxicity rating IPOHE: pre-emerge, 14 days after application, scale 0-100; for Pre-emerge Herbicidal Activity, phytotoxicity rating (0-100), IPOHE: rated 14 days after application, 0 = no damage, 100 = complete death
Summary of the method: as §2

[7] = tested on: large crabgrass (Digitaria sanguinalis, DIGSA); experiment: as above; details: for phytotoxicity rating DIGSA: pre-emerge, 14 days after application, scale 0-100; for Pre-emerge Herbicidal Activity, phytotoxicity rating (0-100), DIGSA: rated 14 days after application, 0 = no damage, 100 = complete death
Summary of the method: as §2

[8] = tested on: green foxtail (Setaria viridis, SETVI); experiment: as above; details: for phytotoxicity rating SETVI: pre-emerge, 14 days after application, scale 0-100; for Pre-emerge Herbicidal Activity, phytotoxicity rating (0-100), SETVI: rated 14 days after application, 0 = no damage, 100 = complete death
Summary of the method: as §2

[9] = tested on: johnsongrass (Sorghum halepense, SORHA); experiment: as above; details: for phytotoxicity rating SORHA: pre-emerge, 14 days after application, scale 0-100; for Pre-emerge Herbicidal Activity, phytotoxicity rating (0-100), SORHA: rated 14 days after application, 0 = no damage, 100 = complete death
Summary of the method: as §2

[10] = tested on: sicklepod (Cassia obtusifolia, CASOB); experiment: as above; details: for phytotoxicity rating CASOB: pre-emerge, 14 days after application, scale 0-100; for Pre-emerge Herbicidal Activity, phytotoxicity rating (0-100), CASOB: rated 14 days after application, 0 = no damage, 100 = complete death
Summary of the method: as §2

[11] = tested on: barnyardgrass (Echinochloa crus-galli, ECHCG); experiment: as above; details: for phytotoxicity rating ECHCG: pre-emerge, 14 days after application, scale 0-100; for Pre-emerge Herbicidal Activity, phytotoxicity rating (0-100), ECHCG: rated 14 days after application, 0 = no damage, 100 = complete death
Summary of the method: as §2

[12] = tested on: lambsquarters (Chenopodium album, CHEAL); experiment: as above; details: for phytotoxicity rating CHEAL: pre-emerge, 14 days after application, scale 0-100; for Pre-emerge Herbicidal Activity, phytotoxicity rating (0-100), CHEAL: rated 14 days after application, 0 = no damage, 100 = complete death
Summary of the method: as §2

[13] = tested on: velvetleaf (Abutilon theophrasti, ABUTH); experiment: as above; details: for phytotoxicity rating ABUTH: pre-emerge, 14 days after application, scale 0-100; for Pre-emerge Herbicidal Activity, phytotoxicity rating (0-100), ABUTH: rated 14 days after application, 0 = no damage, 100 = complete death
Summary of the method: as §2

[14] = tested on: ivyleaf morningglory (Ipomoea hederacea, IPOHE); experiment: Post-emerge test, greenhouse herbicide activity screening; details: post-emerge, 14 days after application, rating scale 0-100
Summary of the method: (§3)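 Compounds in acetone were track-sprayed at 15-1000 g ai/ha (187 l/ha) on sandy loam pots: pre-emerge one day after seeding, post-emerge at 2-3 leaf stage with 0.25% v/v non-ionic surfactant. Phytotoxicity was rated 14 days later on a 0 (no damage) to 100 (complete death) scale.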

[15] = tested on: large crabgrass (Digitaria sanguinalis, DIGSA); experiment: as above; details: post-emerge, 14 days after application, rating scale 0-100
Summary of the method: as §3

[16] = tested on: green foxtail (Setaria viridis, SETVI); experiment: as above; details: post-emerge, 14 days after application, rating scale 0-100
Summary of the method: as §3

[17] = tested on: johnsongrass (Sorghum halepense, SORHA); experiment: as above; details: post-emerge, 14 days after application, rating scale 0-100
Summary of the method: as §3

[18] = tested on: redroot pigweed (Amaranthus retroflexus, AMARE); experiment: as above; details: post-emerge, 14 days after application, rating scale 0-100
Summary of the method: as §3

[19] = tested on: sicklepod (Cassia obtusifolia, CASOB); experiment: as above; details: post-emerge, 14 days after application, rating scale 0-100
Summary of the method: as §3

[20] = tested on: barnyardgrass (Echinochloa crus-galli, ECHCG); experiment: as above; details: post-emerge, 14 days after application, rating scale 0-100
Summary of the method: as §3

[21] = tested on: lambsquarters (Chenopodium album, CHEAL); experiment: as above; details: post-emerge, 14 days after application, rating scale 0-100
Summary of the method: as §3

[22] = tested on: velvetleaf (Abutilon theophrasti, ABUTH); experiment: as above; details: post-emerge, 14 days after application, rating scale 0-100
Summary of the method: as §3

COc1c(Br)cc(F)c(-n2c(=O)cc(C(F)(F)F)n(C)c2=O)c1NC(=O)C=Cc1ccccc1 [2-175]
phytotoxicity rating AMARE ([1]; 63 g ai/ha): 100 | phytotoxicity rating AMARE ([1]; 250 g ai/ha): 100 | RICE phytotoxicity rating (crop damage) ([2]; 63 g ai/ha): 50 | RICE phytotoxicity rating (crop damage) ([2]; 250 g ai/ha): 80 | CORN phytotoxicity rating (crop damage) ([3]; 63 g ai/ha): 10 | CORN phytotoxicity rating (crop damage) ([3]; 250 g ai/ha): 10 | phytotoxicity rating RICE (crop damage) ([4]; 63 g ai/ha): 20 | phytotoxicity rating RICE (crop damage) ([4]; 250 g ai/ha): 40 | phytotoxicity rating CORN (crop damage) ([5]; 63 g ai/ha): 0 | phytotoxicity rating CORN (crop damage) ([5]; 250 g ai/ha): 0 | phytotoxicity rating IPOHE ([6]; 63 g ai/ha): 70 | phytotoxicity rating IPOHE ([6]; 250 g ai/ha): 50 | phytotoxicity rating DIGSA ([7]; 63 g ai/ha): 0 | phytotoxicity rating DIGSA ([7]; 250 g ai/ha): 60 | phytotoxicity rating SETVI ([8]; 63 g ai/ha): 0 | phytotoxicity rating SETVI ([8]; 250 g ai/ha): 60 | phytotoxicity rating SORHA ([9]; 63 g ai/ha): 0 | phytotoxicity rating SORHA ([9]; 250 g ai/ha): 30 | phytotoxicity rating CASOB ([10]; 63 g ai/ha): 30 | phytotoxicity rating CASOB ([10]; 250 g ai/ha): 30 | phytotoxicity rating ECHCG ([11]; 63 g ai/ha): 0 | phytotoxicity rating ECHCG ([11]; 250 g ai/ha): 40 | phytotoxicity rating CHEAL ([12]; 63 g ai/ha): 100 | phytotoxicity rating CHEAL ([12]; 250 g ai/ha): 100 | phytotoxicity rating ABUTH ([13]; 63 g ai/ha): 100 | phytotoxicity rating ABUTH ([13]; 250 g ai/ha): 100 | IPOHE phytotoxicity rating ([14]; 63 g ai/ha): 100 | IPOHE phytotoxicity rating ([14]; 250 g ai/ha): 100 | DIGSA phytotoxicity rating ([15]; 63 g ai/ha): 0 | DIGSA phytotoxicity rating ([15]; 250 g ai/ha): 10 | SETVI phytotoxicity rating ([16]; 63 g ai/ha): 0 | SETVI phytotoxicity rating ([16]; 250 g ai/ha): 20 | SORHA phytotoxicity rating ([17]; 63 g ai/ha): 0 | SORHA phytotoxicity rating ([17]; 250 g ai/ha): 10 | AMARE phytotoxicity rating ([18]; 63 g ai/ha): 100 | AMARE phytotoxicity rating ([18]; 250 g ai/ha): 100 | CASOB phytotoxicity rating ([19]; 63 g ai/ha): 100 | CASOB phytotoxicity rating ([19]; 250 g ai/ha): 100 | ECHCG phytotoxicity rating ([20]; 63 g ai/ha): 0 | ECHCG phytotoxicity rating ([20]; 250 g ai/ha): 20 | CHEAL phytotoxicity rating ([21]; 63 g ai/ha): 100 | CHEAL phytotoxicity rating ([21]; 250 g ai/ha): 100 | ABUTH phytotoxicity rating ([22]; 63 g ai/ha): 100 | ABUTH phytotoxicity rating ([22]; 250 g ai/ha): 100

COc1c(Cl)cc(F)c(-n2c(=O)cc(C(F)(F)F)n(C)c2=O)c1NC(=O)C(=O)c1ccccc1 [2-121]
Pre-emerge Herbicidal Activity, phytotoxicity rating (0-100), AMARE ([1]; 63 g ai/ha): 100 | Pre-emerge Herbicidal Activity, phytotoxicity rating (0-100), AMARE ([1]; 250 g ai/ha): 100 | phytotoxicity rating RICE ([2]; 63 g ai/ha): 15 | phytotoxicity rating RICE ([2]; 250 g ai/ha): 25 | phytotoxicity rating CORN ([3]; 63 g ai/ha): 10 | phytotoxicity rating CORN ([3]; 250 g ai/ha): 20 | Pre-emerge phytotoxicity rating (0-100), crop damage, RICE ([4]; 63 g ai/ha): 0 | Pre-emerge phytotoxicity rating (0-100), crop damage, RICE ([4]; 250 g ai/ha): 0 | Pre-emerge phytotoxicity rating (0-100), crop damage, CORN ([5]; 63 g ai/ha): 0 | Pre-emerge phytotoxicity rating (0-100), crop damage, CORN ([5]; 250 g ai/ha): 10 | Pre-emerge Herbicidal Activity, phytotoxicity rating (0-100), IPOHE ([6]; 63 g ai/ha): 0 | Pre-emerge Herbicidal Activity, phytotoxicity rating (0-100), IPOHE ([6]; 250 g ai/ha): 90 | Pre-emerge Herbicidal Activity, phytotoxicity rating (0-100), DIGSA ([7]; 63 g ai/ha): 0 | Pre-emerge Herbicidal Activity, phytotoxicity rating (0-100), DIGSA ([7]; 250 g ai/ha): 30 | Pre-emerge Herbicidal Activity, phytotoxicity rating (0-100), SETVI ([8]; 63 g ai/ha): 0 | Pre-emerge Herbicidal Activity, phytotoxicity rating (0-100), SETVI ([8]; 250 g ai/ha): 60 | Pre-emerge Herbicidal Activity, phytotoxicity rating (0-100), SORHA ([9]; 63 g ai/ha): 0 | Pre-emerge Herbicidal Activity, phytotoxicity rating (0-100), SORHA ([9]; 250 g ai/ha): 0 | Pre-emerge Herbicidal Activity, phytotoxicity rating (0-100), CASOB ([10]; 63 g ai/ha): 0 | Pre-emerge Herbicidal Activity, phytotoxicity rating (0-100), CASOB ([10]; 250 g ai/ha): 50 | Pre-emerge Herbicidal Activity, phytotoxicity rating (0-100), ECHCG ([11]; 63 g ai/ha): 0 | Pre-emerge Herbicidal Activity, phytotoxicity rating (0-100), ECHCG ([11]; 250 g ai/ha): 0 | Pre-emerge Herbicidal Activity, phytotoxicity rating (0-100), CHEAL ([12]; 63 g ai/ha): 80 | Pre-emerge Herbicidal Activity, phytotoxicity rating (0-100), CHEAL ([12]; 250 g ai/ha): 100 | Pre-emerge Herbicidal Activity, phytotoxicity rating (0-100), ABUTH ([13]; 63 g ai/ha): 100 | Pre-emerge Herbicidal Activity, phytotoxicity rating (0-100), ABUTH ([13]; 250 g ai/ha): 100 | phytotoxicity rating IPOHE ([14]; 63 g ai/ha): 100 | phytotoxicity rating IPOHE ([14]; 250 g ai/ha): 100 | phytotoxicity rating DIGSA ([15]; 63 g ai/ha): 0 | phytotoxicity rating DIGSA ([15]; 250 g ai/ha): 10 | phytotoxicity rating SETVI ([16]; 63 g ai/ha): 0 | phytotoxicity rating SETVI ([16]; 250 g ai/ha): 20 | phytotoxicity rating SORHA ([17]; 63 g ai/ha): 0 | phytotoxicity rating SORHA ([17]; 250 g ai/ha): 10 | phytotoxicity rating AMARE ([18]; 63 g ai/ha): 90 | phytotoxicity rating AMARE ([18]; 250 g ai/ha): 100 | phytotoxicity rating CASOB ([19]; 63 g ai/ha): 10 | phytotoxicity rating CASOB ([19]; 250 g ai/ha): 60 | phytotoxicity rating ECHCG ([20]; 63 g ai/ha): 0 | phytotoxicity rating ECHCG ([20]; 250 g ai/ha): 0 | phytotoxicity rating CHEAL ([21]; 63 g ai/ha): 60 | phytotoxicity rating CHEAL ([21]; 250 g ai/ha): 80 | phytotoxicity rating ABUTH ([22]; 63 g ai/ha): 70 | phytotoxicity rating ABUTH ([22]; 250 g ai/ha): 100
